Source: ChEMBL document CHEMBL2440115, “Discovery and characterization of synthetic 4'-hydroxyflavones-New CK2 inhibitors from flavone family” (Bioorg Med Chem, 2013)

Experiments:
Casein kinase II = Casein kinase II (Homo sapiens, UniProt P19784+P67870+P68400); test: Inhibition of recombinant human CK2 using RRRDDDSDDD as substrate after 20 mins by beta counting analysis in presence of [gamma-labeled 32P]ATP; type: protein-complex assay
[1] = target: Casein kinase II (Homo sapiens) (UniProt P67870+P68400+P19784); test: Inhibition of recombinant human CK2 using RRRDDDSDDD as substrate assessed as residual activity at 10 uM after 20 mins by beta counting analysis in presence of [gamma-labeled 32P]ATP relative to control; type: protein-complex assay

Sequence of Casein kinase II (P67870 whole entry): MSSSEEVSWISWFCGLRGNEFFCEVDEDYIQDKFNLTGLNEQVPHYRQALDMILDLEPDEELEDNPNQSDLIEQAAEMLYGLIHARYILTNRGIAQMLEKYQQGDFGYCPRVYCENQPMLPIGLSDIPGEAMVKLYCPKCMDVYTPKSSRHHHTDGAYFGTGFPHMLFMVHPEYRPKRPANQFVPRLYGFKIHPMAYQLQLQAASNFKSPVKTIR
Sequence of Casein kinase II (P68400 whole entry): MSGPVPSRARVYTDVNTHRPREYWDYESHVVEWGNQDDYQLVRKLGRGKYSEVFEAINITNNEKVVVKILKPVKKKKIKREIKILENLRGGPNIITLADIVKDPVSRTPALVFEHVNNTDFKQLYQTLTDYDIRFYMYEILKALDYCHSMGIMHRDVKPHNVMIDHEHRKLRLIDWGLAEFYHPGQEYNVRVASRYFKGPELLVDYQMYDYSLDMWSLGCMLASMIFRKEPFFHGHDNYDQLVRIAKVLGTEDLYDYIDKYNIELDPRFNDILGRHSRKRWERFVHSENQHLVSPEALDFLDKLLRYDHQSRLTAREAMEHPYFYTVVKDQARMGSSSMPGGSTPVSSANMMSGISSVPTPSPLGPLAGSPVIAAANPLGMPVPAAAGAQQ
Sequence of Casein kinase II (P19784 whole entry): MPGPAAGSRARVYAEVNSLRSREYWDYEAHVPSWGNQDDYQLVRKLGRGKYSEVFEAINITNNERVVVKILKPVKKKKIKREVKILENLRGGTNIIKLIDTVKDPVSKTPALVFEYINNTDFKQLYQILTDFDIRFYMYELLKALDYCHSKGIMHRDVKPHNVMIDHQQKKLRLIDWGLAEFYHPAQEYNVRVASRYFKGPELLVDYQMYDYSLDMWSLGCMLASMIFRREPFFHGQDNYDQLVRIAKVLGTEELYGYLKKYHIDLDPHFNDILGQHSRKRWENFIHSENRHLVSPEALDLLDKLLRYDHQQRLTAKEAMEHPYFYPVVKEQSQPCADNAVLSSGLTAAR

| SMILES | IC50 (Casein kinase II) [µM] | Activity [1] [%] |
| --- | --- | --- |
| COc1cc(-c2cc(=O)c3cc(O)ccc3o2)cc(OC)c1OC | 26 | 45 |
| O=c1cc(-c2ccc(F)cc2)oc2ccccc12 | > 30 | 77 |
| COc1cc(-c2cc(=O)c3cc(C)c(C)cc3o2)ccc1O | 3 |  |
| Cc1ccc(-c2oc3c(C)cc(C)cc3c(=O)c2OCC(=O)O)cc1 | 28 | 50 |
| Cc1ccc(-c2oc3ccc(C)cc3c(=O)c2OCC(=O)O)cc1 | > 30 | 83 |
| COc1ccc(-c2oc3ccccc3c(=O)c2O)cc1OC [3-HYDROXY-3',4'-DIMETHOXYFLAVONE] | > 30 | 66 |
| COc1cccc(-c2oc3ccc(C)cc3c(=O)c2O)c1 | 25 | 47 |
| Cc1ccc(-c2oc3ccccc3c(=O)c2OCC(=O)N2CCOCC2)cc1 | > 30 | 97 |
| Cc1ccc2oc(-c3ccc(Cl)cc3)c(O)c(=O)c2c1 | 23 | 38 |
| Cc1ccc2oc(-c3ccc(C(C)C)cc3)c(O)c(=O)c2c1 | 26 | 39 |
| COc1ccc(-c2cc(=O)c3cc(C)ccc3o2)cc1OC | > 30 | 81 |
| COc1ccc(-c2oc3ccc(C)cc3c(=O)c2O)cc1OC | > 30 | 64 |
| COc1cc(-c2oc3ccc(C)cc3c(=O)c2O)cc(OC)c1OC | > 30 | 65 |
| CN(C)c1ccc(-c2oc3ccccc3c(=O)c2O)cc1 | > 30 | 73 |
| COc1cc(-c2cc(=O)c3c(CN4CCCCC4)c(O)ccc3o2)cc(OC)c1OC | > 30 | 74 |
| COc1ccc(-c2oc3c(C)cc(C)cc3c(=O)c2OS(C)(=O)=O)cc1 | 28 | 46 |
| COc1ccc(-c2cc(=O)c3cc(C)cc(C)c3o2)cc1O | > 30 |  |
| COc1ccc(-c2cc(=O)c3c(CN4CCOCC4)c(O)ccc3o2)cc1 | > 30 | 79 |
| CCN1CCN(Cc2c(O)ccc3oc(-c4cc(OC)c(OC)c(OC)c4)cc(=O)c23)CC1 | > 30 | 77 |
| CCOc1cc(-c2cc(=O)c3cc(C)ccc3o2)ccc1O | 8 | 18 |
| Cc1ccc2oc(-c3ccc(O)cc3)cc(=O)c2c1 | 8 |  |
| Cc1ccc2oc(-c3ccc(F)cc3)c(O)c(=O)c2c1 | > 30 | 60 |
| COc1cc(-c2cc(=O)c3c(CN(C)Cc4ccccc4)c(O)ccc3o2)cc(OC)c1OC | > 30 | 73 |
| Cc1ccc(-c2cc(=O)c3cc(O)ccc3o2)cc1 | 19 | 35 |
| COc1ccc(-c2oc3cc(C)cc(C)c3c(=O)c2OC(=O)C2COc3ccccc3O2)cc1 (stereo not given) | 21 | 37 |
| CCOc1cc(-c2cc(=O)c3ccccc3o2)ccc1O | 7.5 | 21 |

| SMILES | IC50 (Casein kinase II) [µM] | Activity [1] [%] |
| --- | --- | --- |
| COc1cccc(-c2cc(=O)c3cc(C)cc(C)c3o2)c1O | > 30 |  |
| Cc1ccc2oc(-c3ccccc3)c(O)c(=O)c2c1 | > 30 | 80 |
| COc1ccc(-c2cc(=O)c3c(CN4CCC(C)CC4)c(O)ccc3o2)cc1 | > 30 | 68 |
| COc1ccc(-c2oc3ccc(C)cc3c(=O)c2O)cc1 | 28 | 50 |
| COc1ccc(-c2cc(=O)c3cc(OC(C)=O)ccc3o2)cc1 | > 30 | 89 |
| CCOc1ccc(-c2oc3ccc(C)cc3c(=O)c2O)cc1 | > 30 | 57 |
| Cc1cc(C)c2c(=O)cc(-c3ccc(N(C)C)cc3)oc2c1 | > 30 | 58 |
| Cc1ccc(-c2cc(=O)c3cc(C)cc(C)c3o2)cc1 | 21 | 35 |
| Cc1ccc2oc(-c3cc(Br)ccc3O)c(O)c(=O)c2c1 | 28 | 45 |
| O=c1cc(-c2cccc(Br)c2)oc2ccc(O)cc12 | 19 | 29 |
| COc1ccc(-c2cc(=O)c3c(CN(C)Cc4ccccc4)c(O)ccc3o2)cc1 | > 30 | 73 |
| COc1ccc(-c2oc3ccccc3c(=O)c2OC)cc1OC | > 30 | 66 |
| COc1cc(-c2cc(=O)c3cc(C)ccc3o2)cc(OC)c1OC | > 30 | 92 |
| COc1ccc(-c2oc3ccc(C)cc3c(=O)c2OCC(=O)O)cc1 | > 30 | 77 |
| Cc1ccc(-c2oc3ccc(C)cc3c(=O)c2O)cc1 | > 30 | 56 |
| COc1ccc(-c2cc(=O)c3cc(O)ccc3o2)cc1 | 30 | 49 |
| Cc1ccc2oc(-c3ccccc3)c(OCC(=O)N3CCOCC3)c(=O)c2c1 | > 30 | 95 |
| COc1ccc(-c2cc(=O)c3c4c(ccc3o2)OCN(Cc2ccco2)C4)cc1 | 12 | 17 |
| O=C(COc1c(-c2ccccc2Cl)oc2ccccc2c1=O)N1CCOCC1 | > 30 | 97 |
| COc1ccc(-c2cc(=O)c3cc(C)cc(C)c3o2)cc1OC | > 30 | 87 |
| COc1ccc(-c2cc(=O)c3c4c(ccc3o2)OCN(c2cccc(C(F)(F)F)c2)C4)cc1 | 15 | 18 |
| COc1ccc(-c2cc(=O)c3cc(C)ccc3o2)cc1 | > 30 | 73 |
| COc1ccc(-c2oc3ccccc3c(=O)c2O)cc1 | > 30 | 86 |
| Cc1ccc2oc(-c3ccc(Br)cc3)c(O)c(=O)c2c1 | > 30 | 65 |
| COc1ccc(-c2oc3ccccc3c(=O)c2OC(C)=O)cc1 | > 30 | 68 |

Compounds with a lower IC50 (Casein kinase II), results first:

| IC50 (Casein kinase II) [µM] | Activity [1] [%] | SMILES |
| --- | --- | --- |
| 2.2 |  | Cc1cc(C)c2oc(-c3cccc(O)c3)cc(=O)c2c1 |
| 2 |  | COc1cc(-c2cc(=O)c3c(C)c(Cl)c(C)cc3o2)ccc1O |
| 1.6 |  | Cc1cc(C)c2oc(-c3ccc(O)cc3)cc(=O)c2c1 |
| 0.8 | 5 | COc1cc(-c2cc(=O)c3ccccc3o2)ccc1O |
| 0.79 |  | COc1cc(-c2cc(=O)c3cc(Cl)c(C)cc3o2)ccc1O |
| 0.65 |  | COc1cc(-c2cc(=O)c3cc(C)cc(C)c3o2)cc(Br)c1O |
| 0.45 |  | Cc1cc(C)c2oc(-c3ccc(O)c(O)c3)cc(=O)c2c1 |
| 0.32 |  | COc1cc(-c2cc(=O)c3cc(C)ccc3o2)ccc1O |
| 0.3 |  | COc1cc(-c2cc(=O)c3ccc(C)c(C)c3o2)ccc1O |
| 0.24 |  | COc1cc(-c2cc(=O)c3cc(Cl)ccc3o2)ccc1O |
| 0.2 |  | COc1ccc2oc(-c3ccc(O)c(OC)c3)cc(=O)c2c1 |
| 0.18 |  | Cc1cc(C)c2oc(-c3cc(Br)c(O)c(Br)c3)cc(=O)c2c1 |
| 0.175 |  | COc1ccc2c(=O)cc(-c3ccc(O)c(OC)c3)oc2c1 |
| 0.15 |  | COc1cc(-c2cc(=O)c3cc(NC(C)=O)ccc3o2)ccc1O |
| 0.12 |  | CCc1ccc2oc(-c3ccc(O)c(OC)c3)cc(=O)c2c1 |
| 0.12 |  | COc1cc(-c2cc(=O)c3cc(Br)ccc3o2)ccc1O |
| 0.09 |  | COc1cc(-c2cc(=O)c3cc(C)cc(C)c3o2)cc(Cl)c1O |
| 0.09 |  | COc1cc(-c2cc(=O)c3ccc(C)cc3o2)ccc1O |
| 0.087 |  | COc1cc(-c2cc(=O)c3ccc4ccccc4c3o2)cc(Cl)c1O |
| 0.078 |  | Cc1cc(C)c2oc(-c3cc(Cl)c(O)c(Cl)c3)cc(=O)c2c1 |
| 0.066 |  | COc1cc(-c2cc(=O)c3cc(C)cc(C)c3o2)cc([N+](=O)[O-])c1O |
| 0.05 |  | Cc1cc(C)c2oc(-c3ccc(O)c(Br)c3)cc(=O)c2c1 |
| 0.03 |  | COc1cc(-c2cc(=O)c3c(C)cc(C)cc3o2)ccc1O |
| 0.028 |  | COc1cc(-c2cc(=O)c3ccc4ccccc4c3o2)ccc1O |
| 0.02 |  | COc1cc(-c2cc(=O)c3cc(Cl)cc(Cl)c3o2)cc(Cl)c1O |
| 0.012 |  | Cc1cc(C)c2oc(-c3ccc(O)c([N+](=O)[O-])c3)cc(=O)c2c1 |
